Tests used:
[1] = tested on: CXCL16; assay: Cell-based inhibition of CXCL16 shedding (responsible ADAM 10) in A549 cells; conditions: CXCL16, Human, 10 μM tested
Text: (§1) The instant inventor has discovered a conceptually novel class of ADAM10 inhibitors acting via a non-zinc-binding inhibition mechanism.

[2] = tested on: CCL2-induced; assay: Cell-based inhibition of CCL2-induced migration of PBMC (responsible ADAM 10); conditions: Human, 10 μM tested
Text: as §1

[3] = tested on: IL8-induced migration; assay: Cell-based inhibition of IL8-induced migration of neutrophils (responsible ADAM 10); conditions: Human, 10 μM tested
Text: as §1

[4] = tested on: ICOSL; assay: Cell-based inhibition of ICOSL shedding (responsible ADAM 10) in B cells; conditions: Mouse, 10 μM tested
Text: as §1

[5] = Toxicity in cell-based assays
Text: as §1

[6] = molecular target: T1, ADAM10 (Homo sapiens, UniProt O14672); assay: ADAM10 inhibition, HTS campaign and profiling; type: biochemical
T1 sequence (O14672 214-748): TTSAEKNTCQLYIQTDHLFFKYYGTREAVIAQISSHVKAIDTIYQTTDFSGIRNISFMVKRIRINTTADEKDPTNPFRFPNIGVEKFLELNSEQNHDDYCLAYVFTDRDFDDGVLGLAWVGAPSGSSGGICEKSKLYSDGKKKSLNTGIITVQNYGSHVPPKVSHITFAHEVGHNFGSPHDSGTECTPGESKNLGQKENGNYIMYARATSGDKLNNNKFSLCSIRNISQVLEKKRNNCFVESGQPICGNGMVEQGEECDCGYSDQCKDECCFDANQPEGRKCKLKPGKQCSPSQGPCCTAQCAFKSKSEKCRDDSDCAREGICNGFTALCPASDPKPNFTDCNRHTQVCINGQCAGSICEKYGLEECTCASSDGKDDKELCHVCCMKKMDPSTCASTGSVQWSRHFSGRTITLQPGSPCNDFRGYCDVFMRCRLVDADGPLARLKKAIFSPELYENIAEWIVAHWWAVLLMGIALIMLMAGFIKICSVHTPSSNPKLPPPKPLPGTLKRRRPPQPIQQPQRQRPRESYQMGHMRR
Text: (§2) An ADAM10 non-Zn-binding inhibition approach overcomes drawbacks of Zn-binders. As shown by global knockout studies. ADAM10 is vital for development, homeostasis and repair, which makes global inhibition of all functions of this enzyme non-feasible as a therapeutic approach. […] In previous research, the instant inventor conducted a HTS campaign to identify inhibitors of ADAM10 and ADAM17. […] This was verified by profiling studies. An exceptional HTS hit, however, is CID3117694 and related compounds (FIG. 7). While it contains highly polar functionality, these groups are not typical Zn binders, such as the hydroxamic acid groups highlighted in LT4, INCB8765, and GI254023X. […] This new class of selective ADAMI0 inhibitors acts via a non-Zn-binding mechanism and that potentially bind outside of an active site at the hitherto unknown secondary substrate binding site (exosite).

[7] = molecular target: T2, ADAM17 (Homo sapiens, UniProt P78536); assay: ADAM17 counter-screen, HTS campaign and profiling; type: biochemical
T2 sequence (P78536 215-824, species assumed): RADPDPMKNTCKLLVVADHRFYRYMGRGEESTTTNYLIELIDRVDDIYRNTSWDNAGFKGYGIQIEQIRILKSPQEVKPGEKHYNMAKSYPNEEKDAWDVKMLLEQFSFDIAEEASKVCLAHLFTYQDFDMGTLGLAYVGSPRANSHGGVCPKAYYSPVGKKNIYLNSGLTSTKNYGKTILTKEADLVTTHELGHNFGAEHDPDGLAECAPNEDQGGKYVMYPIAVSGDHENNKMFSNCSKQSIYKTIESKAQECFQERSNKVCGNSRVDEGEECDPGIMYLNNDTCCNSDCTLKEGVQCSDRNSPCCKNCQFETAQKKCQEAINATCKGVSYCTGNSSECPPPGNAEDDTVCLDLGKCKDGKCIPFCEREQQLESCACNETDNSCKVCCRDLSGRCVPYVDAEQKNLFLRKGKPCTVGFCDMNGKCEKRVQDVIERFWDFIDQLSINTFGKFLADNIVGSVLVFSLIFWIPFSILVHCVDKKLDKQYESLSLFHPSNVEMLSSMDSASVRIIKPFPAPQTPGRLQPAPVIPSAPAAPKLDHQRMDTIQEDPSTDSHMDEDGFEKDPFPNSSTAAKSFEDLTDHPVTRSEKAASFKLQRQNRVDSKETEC
Text: as §2

[8] = tested on: broader panel of Zn metalloproteases; assay: Profiling against broader panel of Zn metalloproteases; type: biochemical
Text: as §2

[9] = tested on: collagen-induced arthritis model; assay: Collagen-induced arthritis (CIA) in vivo model; design: species or system rat
Text: FIG. 1 is a graph showing disease scores of rat collagen-induced arthritis model study of CID3117694. The disease score is used to assess severity of rheumatoid arthritis (RA) by measuring disease activity, functional impairment, and physical damage present. FIG. 2 is a graph showing paw swelling measurements of rat collagen-induced arthritis model study of CID3117694.* FIGS. 3A-F show micrographs of paw swelling observations of rat collagen-induced arthritis model study of CID3117694. […] The following scale was used: Score 0: normal: Score 1: one joint type (A, B or C) has redness and swelling: Score 2: Two joint types have redness and swelling: Score 3: all three joint types have redness and swelling; and Score 4: maximal redness and swelling of the entire paw leads to disappearance of anatomical definition. […] To test the efficacy of using ADAM10 inhibitor. CID3117694, for treatment of rheumatoid arthritis (RA), the instant inventor conducted a study using the […] Collagen-induced Arthritis (CIA) in vivo model. This model is a gold standard for RA pre-clinical studies of investigational drugs.

[10] = molecular target: T1, ADAM10; conditions: PubChem AID 743338; cited from earlier work
[11] = molecular target: adrenergic (ADRB2) (Homo sapiens, UniProt P07550); conditions: PubChem; cited from earlier work
Sequence of adrenergic (ADRB2) (P07550 whole entry, species assumed): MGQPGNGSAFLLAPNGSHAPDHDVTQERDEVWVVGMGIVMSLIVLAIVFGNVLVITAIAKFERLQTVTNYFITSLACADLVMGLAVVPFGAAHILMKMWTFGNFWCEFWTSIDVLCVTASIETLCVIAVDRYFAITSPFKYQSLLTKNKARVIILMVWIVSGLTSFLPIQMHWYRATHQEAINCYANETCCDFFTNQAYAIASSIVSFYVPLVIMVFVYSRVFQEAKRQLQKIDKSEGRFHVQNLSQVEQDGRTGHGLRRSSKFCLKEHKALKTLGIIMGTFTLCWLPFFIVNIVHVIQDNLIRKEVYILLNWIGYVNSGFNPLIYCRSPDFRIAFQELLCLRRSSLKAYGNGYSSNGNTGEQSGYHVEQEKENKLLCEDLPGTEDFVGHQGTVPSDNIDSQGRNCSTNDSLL

[12] = molecular target: T3, muscarinic (CHRM1) (Homo sapiens, UniProt P11229); conditions: PubChem; cited from earlier work
T3 sequence (P11229 1-460): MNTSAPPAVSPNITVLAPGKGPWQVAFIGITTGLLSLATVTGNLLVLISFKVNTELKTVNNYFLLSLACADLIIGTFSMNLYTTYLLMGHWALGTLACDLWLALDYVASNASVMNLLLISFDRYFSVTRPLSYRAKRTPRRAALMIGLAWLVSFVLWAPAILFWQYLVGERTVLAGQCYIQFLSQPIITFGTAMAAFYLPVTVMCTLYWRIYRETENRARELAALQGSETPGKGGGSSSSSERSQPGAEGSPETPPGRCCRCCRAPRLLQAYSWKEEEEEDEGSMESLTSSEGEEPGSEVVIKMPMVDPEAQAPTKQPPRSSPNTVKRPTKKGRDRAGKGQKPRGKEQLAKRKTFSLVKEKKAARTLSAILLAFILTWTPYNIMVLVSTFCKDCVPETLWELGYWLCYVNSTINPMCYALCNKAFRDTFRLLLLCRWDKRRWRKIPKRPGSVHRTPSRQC

[13] = molecular target: opioid receptors (OPRK1) (Homo sapiens, UniProt P41145); conditions: PubChem; cited from earlier work
Sequence of opioid receptors (OPRK1) (P41145 whole entry, species assumed): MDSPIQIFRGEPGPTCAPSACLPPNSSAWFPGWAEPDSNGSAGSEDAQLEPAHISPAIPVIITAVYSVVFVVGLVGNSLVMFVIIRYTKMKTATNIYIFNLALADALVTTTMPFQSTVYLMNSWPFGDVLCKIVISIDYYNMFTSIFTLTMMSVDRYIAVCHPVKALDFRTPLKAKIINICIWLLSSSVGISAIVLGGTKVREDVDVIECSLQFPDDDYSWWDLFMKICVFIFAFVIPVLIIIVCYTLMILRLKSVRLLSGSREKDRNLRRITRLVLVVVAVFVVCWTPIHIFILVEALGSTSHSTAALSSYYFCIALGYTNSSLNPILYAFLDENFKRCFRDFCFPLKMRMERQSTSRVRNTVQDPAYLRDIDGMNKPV

[14] = molecular target: opioid receptors (OPRM1) (Homo sapiens, UniProt P35372); conditions: PubChem; cited from earlier work
Sequence of opioid receptors (OPRM1) (P35372 whole entry, species assumed): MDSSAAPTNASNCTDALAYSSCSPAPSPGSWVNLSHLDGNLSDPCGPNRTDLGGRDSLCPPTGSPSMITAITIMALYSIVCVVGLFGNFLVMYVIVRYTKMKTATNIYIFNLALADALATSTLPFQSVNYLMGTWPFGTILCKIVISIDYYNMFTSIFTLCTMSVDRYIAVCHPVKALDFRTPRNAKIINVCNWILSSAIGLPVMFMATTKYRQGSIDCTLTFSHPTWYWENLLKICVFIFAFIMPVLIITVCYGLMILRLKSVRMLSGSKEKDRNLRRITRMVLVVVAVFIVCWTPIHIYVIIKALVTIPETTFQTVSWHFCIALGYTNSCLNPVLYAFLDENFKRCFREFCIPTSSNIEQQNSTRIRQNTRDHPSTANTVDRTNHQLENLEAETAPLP

[15] = molecular target: opioid receptors (OPRD1) (Homo sapiens, UniProt P41143); conditions: PubChem; cited from earlier work
Sequence of opioid receptors (OPRD1) (P41143 whole entry, species assumed): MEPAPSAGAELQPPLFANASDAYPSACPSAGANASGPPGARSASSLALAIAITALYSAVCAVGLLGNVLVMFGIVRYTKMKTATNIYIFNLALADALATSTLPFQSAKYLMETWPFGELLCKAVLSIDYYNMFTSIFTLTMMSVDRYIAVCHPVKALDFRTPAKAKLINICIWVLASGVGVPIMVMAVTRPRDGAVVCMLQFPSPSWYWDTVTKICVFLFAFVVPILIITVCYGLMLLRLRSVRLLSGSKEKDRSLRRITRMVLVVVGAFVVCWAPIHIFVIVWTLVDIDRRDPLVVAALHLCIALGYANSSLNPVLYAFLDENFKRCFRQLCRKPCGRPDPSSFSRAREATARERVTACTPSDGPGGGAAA

[16] = PubChem database search; cited from earlier work
[17] = molecular target: T1, ADAM10; conditions: cited from earlier work
[18] = molecular target: T2, ADAM17; conditions: cited from earlier work

**Q.** With `COc1cccc(C(=O)NNC(=O)C(=O)Nc2ccc(C)c(Cl)c2)c1` [CID3117694, N-(3-chloro-4-methylphenyl)-2-[2-(3-methoxybenzoyl) hydrazinyl]-2-oxoacetamide] as the compound, how does the “% Inhibition” value [1] read?
**A.** 80%

**Q.** What about the “% Inhibition” value [2] of the same compound?
**A.** 50%

**Q.** What about the “% Inhibition” value [3] of the same compound?
**A.** 100%

**Q.** What about the “% Inhibition” value [4] of the same compound?
**A.** 95%

**Q.** And the “toxicity in cell-based assays” value [5]?
**A.** lack of toxicity

**Q.** What about the ADAM10 inhibitory potency [6] of the same compound?
**A.** micromolar-potent

**Q.** And the “affinity for ADAM17” value [7]?
**A.** negligible affinity

**Q.** What about the “affinity for a broader panel of Zn metalloproteases” value [8] of the same compound?
**A.** negligible affinity

**Q.** And the RA disease score ([9]; FIG. 1)?
**A.** dose-dependently lowers

**Q.** What about the paw swelling ([9]; FIG. 2 measurement, FIGS. 3A-F observation) of the same compound?
**A.** dose-dependently lowers

**Q.** And the “serum levels of RA biomarker C-reactive protein” value ([9]; FIG. 4)?
**A.** dose-dependently decreases

**Q.** What about the “serum levels of RA biomarker Interleukin-6 (IL-6)” value ([9]; FIG. 5) of the same compound?
**A.** dose-dependently decreases

**Q.** And the “serum levels of RA biomarker Interleukin-10 (IL-10)” value ([9]; FIG. 6)?
**A.** dose-dependently decreases

**Q.** And the “histopathology of right hind paws” value ([9]; G4, CIA+Test Comp 10 mg Kg)?
**A.** Synovial inflammation: Capital H: Hyperplasia: Capital P: Pannus Formation: Capital IEJ: Inflamed & eroded joint

**Q.** And the “histopathology of right hind paws” value ([9]; G5, CIA+Test Comp 30 mg Kg)?
**A.** Synovial inflammation: Capital H: Hyperplasia

**Q.** And the “histopathology of right hind paws” value ([9]; G6, CIA+Test Comp 50 mg Kg)?
**A.** Normal healthy bone & cartilage of arthritis joint: Capital H: Hyperplasia. Capital SI: Synovial inflammation

**Q.** And the “activity in PubChem bioassay” value [10]?
**A.** active

**Q.** And the “activity against ADRB2” value [11]?
**A.** inactive

**Q.** And the “activity against CHRM1” value [12]?
**A.** inactive

**Q.** And the “activity against OPRK1” value [13]?
**A.** inactive

**Q.** What about the “activity against OPRM1” value [14] of the same compound?
**A.** inactive

**Q.** And the “activity against OPRD1” value [15]?
**A.** inactive

**Q.** And the “biological activity across PubChem bioassays” value [16]?
**A.** inactive in 524 bioassays and active only against 3 targets

**Q.** With `CNC(=O)[C@@H](NC(=O)[C@H](CCCc1ccccc1)[C@H](C)N(O)C=O)C(C)(C)C` [GI 254023X] as the compound, how does the IC50 [17] read?
**A.** 5.3 nM

**Q.** What about the IC50 [18] of the same compound?
**A.** 541 nM

**Q.** For `O=C(NO)[C@H]1C[C@H](OC(=O)N2CCCC2)CC[C@@H]1C(=O)N1CCC(c2ccccc2)CC1` [INCB8765], which IC50 [17] is on record?
**A.** 97 nM

**Q.** And the IC50 [18]?
**A.** 2040 nM

**Q.** Which “histopathology of right hind paws” value ([9]; G3, CIA+Indomethacin 2.5 mg Kg) does the source give for `COc1ccc2c(c1)c(CC(=O)O)c(C)n2C(=O)c1ccc(Cl)cc1` [Indomethacin, indomethacin, reference compound] here?
**A.** Normal Morphology of bone & cartilage of arthritis joint: Capital SI: Synovial inflammation: Capital H: Hyperplasia

— US20250177333A1, “METHOD FOR TREATING RHEUMATOID ARTHRITIS (RA) USING AN ENZYME-AND SUBSTRATE SELECTIVE EXOSITE INHIBITOR OF A DISINTEGRIN AND METALLOPROTEASE 10 (ADAM10)” (Nova Southeastern University, priority 2022, published 2025)
